Read-outs that look alike come from different tables or passages of the source.

What all share (type): in vivo
Assay [1] has as its system Diabrotica balteata (Corn Root Worm). In words: Diabrotica balteata (corn root worm), sprayed maize sprouts on agar, mortality. The conditions noted are these: 96 h, application rate 200 ppm, L2 larvae, 4 days after infestation, read-out: mortality. The method, then: Diabrotica balteata (Corn Root Worm):
Maize sprouts placed onto an agar layer in 24-well microtiter plates were treated with aqueous test solutions prepared from 10′000 ppm DMSO stock solutions by spraying. After drying, the plates were infested with L2 larvae (6 to 10 per well). The samples were assessed for mortality 4 days after infestation.

Assay [2] has as its system Euschistus heros (Neotropical Brown Stink Bug). In words: Euschistus heros (neotropical brown stink bug), feeding/contact activity, mortality. The conditions noted are these: 120 h, application rate 200 ppm, N2 nymphs, 5 days after infestation, read-out: mortality. The method, then: Euschistus heros (Neotropical Brown Stink Bug): Feeding/contact activity
Soybean leaves on agar in 24-well microtiter plates were sprayed with aqueous test solutions prepared from 10′000 ppm DMSO stock solutions. After drying the leaves were infested with N2 nymphs. The samples were assessed for mortality 5 days after infestation.

Assay [3] relates to Myzus persicae (Green Peach Aphid). In words: Myzus persicae (green peach aphid), feeding/contact activity, mortality. The conditions noted are these: 144 h, application rate 200 ppm, aphid population of mixed ages, 6 days after infestation. On the procedure: Myzus persicae (Green Peach Aphid): Feeding/Contact Activity
Sunflower leaf discs were placed onto agar in a 24-well microtiter plate and sprayed with aqueous test solutions prepared from 10′000 ppm DMSO stock solutions. After drying, the leaf discs were infested with an aphid population of mixed ages. The samples were assessed for mortality 6 days after infestation.

Assay [4] has as its system Plutella xylostella (Diamond Back Moth). In words: Plutella xylostella (diamond back moth), feeding/contact activity on artificial diet, mortality. As to conditions: 120 h, application rate 200 ppm, L2 larvae on artificial diet, 5 days after infestation, read-out: mortality. The method, then: Plutella xylostella (Diamond Back Moth): Feeding/Contact Activity
24-well microtiter plates with artificial diet were treated with aqueous test solutions prepared from 10′000 ppm DMSO stock solutions by pipetting. After drying, the plates were infested with L2 larvae (10 to 15 per well). The samples were assessed for mortality 5 days after infestation.

Assay [5] concerns Spodoptera littoralis (Egyptian Cotton Leaf Worm). In words: Spodoptera littoralis (Egyptian cotton leaf worm), feeding/contact activity, mortality. The conditions noted are these: 72 h, application rate 200 ppm, L1 larvae, 3 days after infestation, read-out: mortality. The method, then:
Spodoptera littoralis (Egyptian Cotton Leaf Worm): Feeding/Contact Activity
Cotton leaf discs were placed onto agar in 24-well microtiter plates and sprayed with aqueous test solutions prepared from 10′000 ppm DMSO stock solutions. After drying the leaf discs were infested with five L1 larvae. The samples were assessed for mortality 3 days after infestation.

Assay [6] has as its system Tetranychus urticae (Two-Spotted Spider Mite). In words: Tetranychus urticae (two-spotted spider mite), feeding/contact activity, mortality. As to conditions: 192 h, application rate 200 ppm, mixed population (mobile stages), 8 days after infestation. On the procedure:
Tetranychus urticae (Two-Spotted Spider Mite): Feeding/Contact Activity
Bean leaf discs on agar in 24-well microtiter plates were sprayed with aqueous test solutions prepared from 10′000 ppm DMSO stock solutions. After drying the leaf discs were infested with a mite population of mixed ages. The samples were assessed for mortality on mixed population (mobile stages) 8 days after infestation.

For assay [7], the system named is Thrips tabaci (Onion Thrips). Nature of the assay: Thrips tabaci (onion thrips), feeding/contact activity, mortality. As to conditions: 144 h, application rate 200 ppm, thrips population of mixed ages, 6 days after infestation, read-out: mortality. The method, then:
Thrips tabaci (Onion Thrips): Feeding/Contact Activity
Sunflower leaf discs were placed on agar in 24-well microtiter plates and sprayed with aqueous test solutions prepared from 10′000 ppm DMSO stock solutions. After drying the leaf discs were infested with a thrips population of mixed ages. The samples were assessed for mortality 6 days after infestation.

For assay [8], the system named is Plutella xylostella (Diamond Back Moth, Larvicide L-2/3). In words: Biological comparison: insecticidal activity against Plutella xylostella, larvicide L-2/3, sprayed Chinese cabbage plants. The conditions noted are these: 120 h. On the procedure:
Biological Comparison Data:
Compound A is disclosed in WO2014/122083 as example (Ic-2) (p. 82, Table 3). The activities of compounds A is compared with the activities of compound 41 and 42, according to the present invention. The tests are carried out at different concentrations (ppm).
a) Insecticidal Activity Against Plutella xylostella (Diamond Back Moth, Larvicide L-2/3, Feeding/Contact)
Chinese cabbage plants are sprayed with diluted test solutions in an application chamber. 1 day after treatment, excised leaves are placed in petri dishes and infested with 10 L2 (2 replicates). Samples are checked 5 days after infestation for mortality, feeding behavior, and growth regulation.

[9] abbreviates: concentration 0.0125 ppm, L2 larvae, 5 days after infestation, read-out: Mortality (%).
The mark [10] stands for this setting: concentration 0.05 ppm, L2 larvae, 5 days after infestation, read-out: Mortality (%).
Setting [11] is: concentration 0.2 ppm, L2 larvae, 5 days after infestation, read-out: Mortality (%).
The mark [12] stands for this setting: concentration 0.8 ppm, L2 larvae, 5 days after infestation, read-out: Mortality (%).

Consider `Cn1nc(C(F)(F)C(F)(F)F)c(C2CC2)c1-n1cc(-c2ccc(Cl)c(C(=O)NC3(C#N)CC3)c2)cn1` [Compound 9], for which the mortality at 200 ppm in assay [1], in assay [2], in assay [3], in assay [4], in assay [5] and in assay [6] was at least 80% throughout. In addition, the mortality at 200 ppm in assay [7] is at least 80%.
Turning to `C=Cc1c(C(F)(F)C(F)(F)F)nn(C)c1-n1cc(-c2ccc(Cl)c(C(=O)NC3CC3)c2)cn1` [Compound 16, 2-Chloro-N-cyclopropyl-5-[1-[2-methyl-5-(1,1,2,2,2-pentafluoroethyl)-4-vinyl-pyrazol-3-yl]pyrazol-4-yl]benzamide], the mortality at 200 ppm in assay [1], in assay [2], in assay [3], in assay [4], in assay [5] and in assay [6] was at least 80% throughout. Also, in assay [7], the mortality at 200 ppm is at least 80%.
As for `Cn1nc(C(F)(F)C(F)(F)F)c(SC2CC2)c1-n1cc(-c2ccc(Cl)c(C(=O)NC3(C#N)CC3)c2)cn1` [Compound 19], the mortality at 200 ppm in assay [1], in assay [2], in assay [3], in assay [4], in assay [5] and in assay [6] was at least 80% each time. For the same compound, the mortality at 200 ppm in assay [7] is at least 80%.
In the case of `Cn1nc(C(F)(F)C(F)(F)F)c(SC2CC2)c1-n1cc(-c2ccc(Cl)c(C(=O)NC3CC3)c2)cn1` [Compound 20], the mortality at 200 ppm in assay [1], in assay [2], in assay [3], in assay [4], in assay [5] and in assay [6] was at least 80% in each case. For the same compound, the mortality at 200 ppm in assay [7] is at least 80%.
Take `Cn1nc(C(F)(F)C(F)(F)F)c(OC(F)F)c1-n1cc(-c2cnc(Cl)c(C(=O)NC3(C#N)CC3)c2)cn1` [Compound 21]: the mortality at 200 ppm in assay [1], in assay [2], in assay [3], in assay [4], in assay [5] and in assay [6] was at least 80% each time.
Turning to `Cn1nc(C(F)(F)C(F)(F)F)c(OC(F)F)c1-n1cc(-c2cnc(Cl)c(C(=O)NC3CC3)c2)cn1` [Compound 22], the mortality at 200 ppm in assay [1], in assay [2], in assay [3], in assay [4], in assay [5] and in assay [6] was at least 80% throughout. For the same compound, the mortality at 200 ppm in assay [7] is at least 80%.
For `Cn1nc(C(F)(F)C(F)(F)F)c([S+]([O-])C2CC2)c1-n1cc(-c2ccc(Cl)c(C(=O)NC3CC3)c2)cn1` (centres unmarked) [Compound 34], the mortality at 200 ppm in assay [1], in assay [2], in assay [3], in assay [4], in assay [5] and in assay [6] was at least 80% each time. In addition, the mortality at 200 ppm in assay [7] is at least 80%.
With `Cn1nc(C(F)(F)C(F)(F)F)c([S+]([O-])C2CC2)c1-n1cc(-c2ccc(Cl)c(C(=O)NC3(C#N)CC3)c2)cn1` (centres unmarked) [Compound 36], the mortality at 200 ppm in assay [1], in assay [2], in assay [3], in assay [4], in assay [5] and in assay [6] was at least 80% in each case. The mortality at 200 ppm in assay [7] is at least 80%.
On to `CN(C(=O)c1cc(-c2cnn(-c3c(OC(F)F)c(C(F)(F)C(F)(F)F)nn3C)c2)ccc1Cl)C1(C#N)CC1` [Compound 41], for which the mortality at 200 ppm in assay [1], in assay [2], in assay [4], in assay [5], in assay [6] and in assay [7] was at least 80% in each case. In addition, the mortality at 0.0125 ppm in assay [8] (setting [9]) worked out at 90%. Besides, the mortality at 0.05 ppm in assay [8] (setting [10]) is 100%. Moreover, in assay [8] (setting [11]), the mortality at 0.2 ppm amounted to 100%. Further, in assay [8] (setting [12]), the mortality at 0.8 ppm stood at 100%.
For `CCN(C(=O)c1cc(-c2cnn(-c3c(OC(F)F)c(C(F)(F)C(F)(F)F)nn3C)c2)ccc1Cl)C1(C#N)CC1` [Compound 42], the mortality at 200 ppm in assay [1], in assay [2], in assay [3], in assay [4], in assay [5] and in assay [6] was at least 80% throughout. In assay [7], the mortality at 200 ppm was at least 80%. Also, in assay [8] (setting [9]), the mortality at 0.0125 ppm was 95%. In addition, the mortality at 0.05 ppm in assay [8] (setting [10]) was 100%. The mortality at 0.2 ppm in assay [8] (setting [11]) was found to be 100%. In addition, in assay [8] (setting [12]), the mortality at 0.8 ppm is 100%.
Consider `Cn1nc(C(F)(F)C(F)(F)F)c(C(F)(F)F)c1-n1cc(-c2ccc(Cl)c(C(=O)NC3(C#N)CC3)c2)cn1` [Cpd A, reference compound], for which, in assay [8], the mortality at 0.0125 ppm was 35%, the mortality at 0.05 ppm is 85%, the mortality at 0.2 ppm worked out at 100% and the mortality at 0.8 ppm turned out to be 100%.

The term mortality denotes the percentage killed.

(Values after US10874104B2, “Pesticidally active pryazole derivatives” (SYNGENTA PARTICIPATIONS AG, priority 2016, dated 2020).)
